Experimental data: publication PMC5285354, “Cationic Net Charge and Counter Ion Type as Antimicrobial Activity Determinant Factors of Short Lipopeptides” (Frontiers in Microbiology, 2017)
≈ marks a conversion by molar mass, not a printed value. Where two headings read alike, the source gives them in different places. Where a SMILES comes first, the peptide text is derived from it. The star is where a group is joined. Lauroyl = CCCCCCCCCCCC(=O)*; Decanoyl = CCCCCCCCCC(=O)*

Legend:
Type in all cases: cell-based
[1] = system: Aspergillus brasiliensis (ATCC 16404); conditions: ATCC 16404, 48 h
Procedure: (§1) The minimum inhibitory concentration (MIC), minimum bactericidal concentration (MBC) and minimum fungicidal concentration (MFC) were determined according to the procedure recommended by the Clinical Laboratory Standards Institute (CLSI). The following reference strains were tested: Gram-negative E. coli (ATCC 25922), K. pneumoniae (ATCC 700603), P. vulgaris (PCM 2668), P. aeruginosa (ATCC 9027), Gram-positive S. aureus (ATCC 25923), S. epidermidis (PCM 2118), B. subtilis (ATCC 6633), E. faecalis (ATCC 29212) and fungi C. albicans (ATCC 10231), C. tropicalis (PCM 2681), and A. brasiliensis (ATCC 16404). All the microorganisms were from the Polish Collection of Microorganisms (Wroclaw, Poland). MIC was determined using a microbroth dilution method with Mueller-Hinton (MH) broth for bacteria and Sabouraud Dextrose broth for fungi (Becton Dickinson, Le Pont de Claix, France). An initial inoculum of 10^5 cfu/mL was used for bacteria and 10^3 cfu/mL for fungi. Polypropylene 96-well plates (Kartell, Noviglio, Italy) were incubated for 18 h at 37°C for bacteria and for 48 h at 25°C for the tested fungi. MIC (μg/mL) was taken as the lowest concentration of the lipopeptide, at which the observable growth was inhibited. […] The experiments were performed in triplicate on three different days.

[2] = system: Bacillus subtilis (ATCC 6633); conditions: for MIC Bacillus subtillis: ATCC 6633, 18 h; for MBC Bacillus subtillis: ATCC 6633, 24 h
Procedure: as §1

[3] = system: Candida albicans (ATCC 10231); conditions: ATCC 10231, 48 h
Procedure: as §1

[4] = system: Candida tropicalis (PCM 2681); conditions: PCM 2681, 48 h
Procedure: as §1

[5] = system: Enterococcus faecalis (ATCC 29212)
Procedure: as §1

[6] = system: Escherichia coli (ATCC 25922)
Procedure: as §1

[7] = system: Klebsiella pneumoniae (ATCC 700603)
Procedure: as §1

[8] = system: Proteus vulgaris (PCM 2668); conditions: PCM 2668, TFA salt, triplicate; for MIC Proteus vulgaris: Mueller-Hinton broth, 10^5 cfu/mL, 18 h 37°C; for MBC Proteus vulgaris: subculture on Mueller-Hinton II Agar, 24 h 37°C
Procedure: as §1

[9] = system: Staphylococcus aureus (ATCC 25923)
Procedure: as §1

[10] = system: Staphylococcus epidermidis (PCM 2118); conditions: for MIC Staphylococcus epidermidis: PCM 2118, 18 h; for MBC Staphylococcus epidermidis: PCM 2118, 24 h
Procedure: as §1

human red blood cells = conditions: 1 h
Procedure: The hemolytic activity of the lipopeptides was determined by exposing human red blood cells (4% v/v) to tested compounds at graded concentrations. Red blood cells were obtained from a healthy donor. EDTA was used to prevent the blood clotting. The plasma was removed via centrifugation and the erythrocytes were washed three times with PBS. The red blood cells were suspended in PBS and incubated with different concentrations of lipopeptides at 37°C for 1 h and centrifuged for 5 min at 1000 × g. The supernatants were transferred to a sterile 96-well plate and hemoglobin release was measured with an Epoch microplate spectrophotometer (BioTek, USA) by recording the absorbance at 550 nm. A 0.1% Triton X-100 solution was used as the positive control (100% of hemolysis) and pure PBS as the negative (0% of hemolysis). Minimum hemolytic concentration (MHC) was taken as the lowest concentration which induced 10% of hemolysis.

[11] = system: Pseudomonas aeruginosa (ATCC 9027); conditions: ATCC 9027, 18 h
Procedure: as §1

[12] = system: Pseudomonas aeruginosa (ATCC 9027); conditions: ATCC 9027, 24 h
[13] = ATCC 29212, TFA salt, Mueller-Hinton broth, 10^5 cfu/mL, 18 h 37°C, triplicate
[14] = ATCC 29212, TFA salt, subculture on Mueller-Hinton II Agar, 24 h 37°C, triplicate
[15] = ATCC 25923, TFA salt, MIC wells subcultured on Mueller-Hinton II Agar, 24 h 37°C, triplicate
[16] = ATCC 25922, TFA salt, Mueller-Hinton broth, 10^5 cfu/mL, 18 h 37°C, triplicate
[17] = ATCC 25922, TFA salt, subculture on Mueller-Hinton II Agar, 24 h 37°C, triplicate
[18] = ATCC 25923, TFA salt, Mueller-Hinton broth, 10^5 cfu/mL, 18 h 37°C, triplicate on three days

CCCCCCCCCCCC(=O)N[C@@H](CCCCN)C(=O)N[C@@H](CCCCN)C(=O)N[C@@H](CCCCN)C(=O)N[C@@H](CCCCN)C(N)=O [C12-KKKK-NH2] (Lauroyl-KKKK-NH2)
MFC Aspergillus brasiliensis [1]: 256 µg/mL (≈ 360 µM)
MIC Aspergillus brasiliensis [1]: 128 µg/mL (≈ 180 µM)
MIC Bacillus subtillis [2]: 128 µg/mL (≈ 180 µM)
MBC Bacillus subtillis [2]: 256 µg/mL (≈ 360 µM)
MFC Candida albicans [3]: 256 µg/mL (≈ 360 µM)
MIC Candida albicans [3]: 256 µg/mL (≈ 360 µM)
MFC Candida tropicalis [4]: 512 µg/mL (≈ 719 µM)
MIC Candida tropicalis [4]: 256 µg/mL (≈ 360 µM)
MIC Enterococcus fecalis ([5]; ATCC 29212, 18 h): 512 µg/mL (≈ 719 µM)
MBC Enterococcus fecalis ([5]; ATCC 29212, 24 h): 512 µg/mL (≈ 719 µM)
MIC Escherichia coli ([6]; ATCC 25922, 18 h): 256 µg/mL (≈ 360 µM)
MBC Escherichia coli ([6]; ATCC 25922, 24 h): 256 µg/mL (≈ 360 µM)
MBC Klebsiella pneumoniae ([7]; ATCC 700603, 24 h): 1000 µg/mL (≈ 1400 µM)
MIC Proteus vulgaris [8]: >2000 µg/mL
MIC Staphylococcus aureus ([9]; ATCC 25923, 18 h): 1000 µg/mL (≈ 1400 µM)
MBC Staphylococcus aureus ([9]; ATCC 25923, 24 h): 1000 µg/mL (≈ 1400 µM)
MIC Staphylococcus epidermidis [10]: 64 µg/mL (≈ 89.9 µM)
MBC Staphylococcus epidermidis [10]: 64 µg/mL (≈ 89.9 µM)
Hemolysis HC10 (MHC), concentration of lipopeptide inducing 10% of hemolysis (human red blood cells): 1000 µg/mL

CCCCCCCCCC(=O)N[C@@H](CCCCN)C(N)=O [C10-K-NH2]
MFC Aspergillus brasiliensis [1]: 1000 µg/mL (≈ 3340 µM)
MIC Aspergillus brasiliensis [1]: 512 µg/mL (≈ 1710 µM)
MIC Bacillus subtillis [2]: 1000 µg/mL (≈ 3340 µM)
MBC Bacillus subtillis [2]: 1000 µg/mL (≈ 3340 µM)
MFC Candida albicans [3]: 2000 µg/mL (≈ 6680 µM)
MIC Candida albicans [3]: 1000 µg/mL (≈ 3340 µM)
MFC Candida tropicalis [4]: 2000 µg/mL (≈ 6680 µM)
MIC Candida tropicalis [4]: 1000 µg/mL (≈ 3340 µM)
MIC Enterococcus fecalis [5, 13]: >2000 µg/mL
MBC Enterococcus fecalis [5, 14]: >2000 µg/mL
MIC Escherichia coli ([6]; ATCC 25922, 18 h): 1000 µg/mL (≈ 3340 µM)
MBC Escherichia coli ([6]; ATCC 25922, 24 h): 1000 µg/mL (≈ 3340 µM)
MIC Klebsiella pneumoniae ([7]; ATCC 700603, 18 h): 1000 µg/mL (≈ 3340 µM)
MBC Klebsiella pneumoniae ([7]; ATCC 700603, 24 h): 1000 µg/mL (≈ 3340 µM)
MIC Proteus vulgaris [8]: >2000 µg/mL
MBC Proteus vulgaris [8]: >2000 µg/mL
MIC Pseudomonas aeruginosa [11]: 512 µg/mL (≈ 1710 µM)
MIC Staphylococcus aureus ([9]; ATCC 25923, 18 h): 1000 µg/mL (≈ 3340 µM)
MBC Staphylococcus aureus [9, 15]: >1000 µg/mL
MIC Staphylococcus epidermidis [10]: 1000 µg/mL (≈ 3340 µM)
MBC Staphylococcus epidermidis [10]: 1000 µg/mL (≈ 3340 µM)
MBC Pseudomonas aeruginosa [12]: 1000 µg/mL (≈ 3340 µM)

CCCCCCCCCC(=O)N[C@@H](CCCCN)C(=O)NCC(=O)N[C@@H](CCCCN)C(=O)NCC(N)=O [C10-KGKG-NH2] (Decanoyl-KGKG-NH2)
MFC Aspergillus brasiliensis [1]: 2000 µg/mL (≈ 3690 µM)
MIC Aspergillus brasiliensis [1]: 1000 µg/mL (≈ 1850 µM)
MIC Bacillus subtillis [2]: 512 µg/mL (≈ 945 µM)
MBC Bacillus subtillis [2]: 1000 µg/mL (≈ 1850 µM)
MFC Candida albicans [3]: 2000 µg/mL (≈ 3690 µM)
MIC Candida albicans [3]: 1000 µg/mL (≈ 1850 µM)
MFC Candida tropicalis [4]: 2000 µg/mL (≈ 3690 µM)
MIC Candida tropicalis [4]: 512 µg/mL (≈ 945 µM)
MIC Enterococcus fecalis ([5]; ATCC 29212, 18 h): 2000 µg/mL (≈ 3690 µM)
MBC Enterococcus fecalis [5, 14]: >2000 µg/mL
MIC Escherichia coli [6, 16]: >2000 µg/mL
MBC Escherichia coli [6, 17]: >2000 µg/mL
MIC Klebsiella pneumoniae ([7]; ATCC 700603, 18 h): 2000 µg/mL (≈ 3690 µM)
MBC Klebsiella pneumoniae ([7]; ATCC 700603, 24 h): 2000 µg/mL (≈ 3690 µM)
MIC Proteus vulgaris [8]: >2000 µg/mL
MBC Proteus vulgaris [8]: >2000 µg/mL
MIC Pseudomonas aeruginosa [11]: 1000 µg/mL (≈ 1850 µM)
MBC Staphylococcus aureus [9, 15]: >2000 µg/mL
MIC Staphylococcus aureus [9, 18]: >2000 µg/mL
MIC Staphylococcus epidermidis [10]: 512 µg/mL (≈ 945 µM)
MBC Staphylococcus epidermidis [10]: 512 µg/mL (≈ 945 µM)
MBC Pseudomonas aeruginosa [12]: 2000 µg/mL (≈ 3690 µM)

CCCCCCCCCC(=O)N[C@@H](CCCCN)C(=O)NCC(=O)N[C@@H](CCCCN)C(N)=O [C10-KGK-NH2] (Decanoyl-Lys-Gly-Lys-NH2)
MFC Aspergillus brasiliensis [1]: 1000 µg/mL (≈ 2060 µM)
MIC Aspergillus brasiliensis [1]: 1000 µg/mL (≈ 2060 µM)
MIC Bacillus subtillis [2]: 512 µg/mL (≈ 1060 µM)
MBC Bacillus subtillis [2]: 1000 µg/mL (≈ 2060 µM)
MFC Candida albicans [3]: 1000 µg/mL (≈ 2060 µM)
MIC Candida albicans [3]: 1000 µg/mL (≈ 2060 µM)
MFC Candida tropicalis [4]: 1000 µg/mL (≈ 2060 µM)
MIC Candida tropicalis [4]: 512 µg/mL (≈ 1060 µM)
MIC Enterococcus fecalis [5, 13]: >2000 µg/mL
MBC Enterococcus fecalis [5, 14]: >2000 µg/mL
MIC Escherichia coli [6, 16]: >2000 µg/mL
MBC Escherichia coli [6, 17]: >2000 µg/mL
MIC Klebsiella pneumoniae ([7]; ATCC 700603, TFA salt, Mueller-Hinton broth, 10^5 cfu/mL, 18 h 37°C, triplicate): >2000 µg/mL
MBC Klebsiella pneumoniae ([7]; ATCC 700603, TFA salt, subculture on Mueller-Hinton II Agar, 24 h 37°C, triplicate): >2000 µg/mL
MIC Proteus vulgaris [8]: >2000 µg/mL
MBC Proteus vulgaris [8]: >2000 µg/mL
MIC Pseudomonas aeruginosa [11]: 2000 µg/mL (≈ 4130 µM)
MBC Staphylococcus aureus [9, 15]: >2000 µg/mL
MIC Staphylococcus aureus [9, 18]: >2000 µg/mL
MIC Staphylococcus epidermidis [10]: 512 µg/mL (≈ 1060 µM)
MBC Staphylococcus epidermidis [10]: 512 µg/mL (≈ 1060 µM)
MBC Pseudomonas aeruginosa [12]: 2000 µg/mL (≈ 4130 µM)

CCCCCCCCCCCC(=O)N[C@@H](CCCCN)C(=O)N[C@@H](CCCCN)C(N)=O [C12-KK-NH2]
MFC Aspergillus brasiliensis [1]: 2000 µg/mL (≈ 4390 µM)
MIC Aspergillus brasiliensis [1]: 2000 µg/mL (≈ 4390 µM)
MIC Bacillus subtillis [2]: 64 µg/mL (≈ 140 µM)
MBC Bacillus subtillis [2]: 128 µg/mL (≈ 281 µM)
MFC Candida albicans [3]: 2000 µg/mL (≈ 4390 µM)
MIC Candida albicans [3]: 1000 µg/mL (≈ 2190 µM)
MFC Candida tropicalis [4]: 2000 µg/mL (≈ 4390 µM)
MIC Candida tropicalis [4]: 1000 µg/mL (≈ 2190 µM)
MIC Enterococcus fecalis ([5]; ATCC 29212, 18 h): 512 µg/mL (≈ 1120 µM)
MBC Enterococcus fecalis ([5]; ATCC 29212, 24 h): 512 µg/mL (≈ 1120 µM)
MIC Escherichia coli ([6]; ATCC 25922, 18 h): 2000 µg/mL (≈ 4390 µM)
MBC Escherichia coli ([6]; ATCC 25922, 24 h): 2000 µg/mL (≈ 4390 µM)
MIC Klebsiella pneumoniae ([7]; ATCC 700603, 18 h): 2000 µg/mL (≈ 4390 µM)
MBC Klebsiella pneumoniae ([7]; ATCC 700603, 24 h): 2000 µg/mL (≈ 4390 µM)
MIC Proteus vulgaris [8]: >2000 µg/mL
MBC Proteus vulgaris [8]: >2000 µg/mL
MIC Pseudomonas aeruginosa [11]: 2000 µg/mL (≈ 4390 µM)
MIC Staphylococcus aureus ([9]; ATCC 25923, 18 h): 2000 µg/mL (≈ 4390 µM)
MBC Staphylococcus aureus ([9]; ATCC 25923, 24 h): 2000 µg/mL (≈ 4390 µM)
MIC Staphylococcus epidermidis [10]: 64 µg/mL (≈ 140 µM)
MBC Staphylococcus epidermidis [10]: 64 µg/mL (≈ 140 µM)
MBC Pseudomonas aeruginosa [12]: 2000 µg/mL (≈ 4390 µM)
